Source: ChEMBL document CHEMBL3137667, “[Drug-induced liver injury; fourteenth updated edition of the bibliographic database of liver injuries and related drugs]” (Gastroenterol Clin Biol, 2004)
*1 amine or outer side, *2 acyl side, *3 side chain or, on linkers, in order; H or OH if unused. Where a SMILES comes first, the peptide text is derived from it. Bridges are numbered along the chain shown (N, C = ends). [ ]: non-standard residue; d: D form. The star is where a group is joined. ξ: configuration not given here. X2 = N=C1NCCC([C@H](N[*:1])C(=O)[*:2])N1; ΔAla(Z-3-ureido) = NC(=O)N/C=C(\N)C(=O)O; ξβ3hOrn = NCCCC(N)CC(=O)*; Dap = NC[C@H](N)C(=O)O

Tests used:
[1] = Highest frequency of acute liver toxicity observed during clinical trials, expressed as a percentage. [column '% AIGUE' in source]; conditions: human
[2] = human
[3] = human; remark: listed apart in the source
[4] = human; remark: listed apart in the source
[5] = human; remark: listed apart in the source
[6] = human; remark: listed apart in the source
[7] = human, serum
[8] = human; remark: listed apart in the source
[9] = human; remark: listed apart in the source
[10] = human, serum, 4383 h
[11] = human; remark: listed apart in the source
[12] = Highest frequency of moderate liver toxicity observed during clinical trials, expressed as a percentage. [column '% BIOL' in source]; conditions: human
[13] = human, serum; remark: listed apart in the source
[14] = human; remark: listed apart in the source
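Wherever Hepatotoxicity (association with vascular disease) is given: count of indexed literature references reporting vascular liver injury in humans, e.g. peliosis hepatitis, hepatic veno-occlusive disease or Budd-Chiari syndrome.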
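Wherever Hepatotoxicity (benign tumour) is given: value is a count of indexed literature references citing a benign tumour confirmed by histopathology.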
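Wherever Hepatotoxicity (choleostasis) is given: human cholestatic liver injury, shown by histopathology or by peak ALT or AST elevation over alkaline phosphatase ratio below 2, value counts indexed literature reports.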
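Wherever Hepatotoxicity (chronic liver disease) is given: chronic liver injury confirmed by histopathology or persistently raised serum aminotransferase activity beyond 6 months, value given as the count of indexed literature references.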
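Wherever Hepatotoxicity (cirrhosis) is given: value is a count of indexed literature references reporting cirrhosis confirmed by histopathology.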
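Wherever Hepatotoxicity (cytolytic) is given: human cytolytic liver injury, shown by histopathology or by a ratio above 5 of peak ALT or AST elevation to alkaline phosphatase elevation, value counts indexed references.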
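Wherever Hepatotoxicity (granulomatous hepatitis) is given: value is a count of indexed literature references reporting granulomatous liver disease confirmed by histopathology.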
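Wherever Hepatotoxicity (malignant tumour) is given: malignant tumour confirmed by histopathology, value gives the count of indexed literature references reporting it.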
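Wherever Hepatotoxicity (severe hepatitis) is given: human clinical data: severe hepatitis, meaning potentially life-threatening liver failure or clinically observed cases, the value counts how many indexed literature references report it.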
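Wherever Hepatotoxicity (steatosis) is given: steatosis confirmed by histopathology, value is the count of indexed references.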

## C[C@H](C(=O)O)c1ccc2oc(-c3ccc(F)cc3)nc2c1 [FLUNOXAPROFEN]
[1]
  Hepatotoxicity (acute): 0%
[2]
  Hepatotoxicity (benign tumour): 0
[3]
  Hepatotoxicity (association with vascular disease): 0
[4]
  Hepatotoxicity (granulomatous hepatitis): 0
[5]
  Hepatotoxicity (choleostasis): 0
[6]
  Hepatotoxicity (severe hepatitis): 0
[7]
  Hepatotoxicity (acute): 0
[8]
  Hepatotoxicity (cytolytic): 0
[9]
  Hepatotoxicity (cirrhosis): 0
[10]
  Hepatotoxicity (chronic liver disease): 0
[11]
  Hepatotoxicity (steatosis): 0
[12]
  Hepatotoxicity (moderate): 0%
[13]
  Hepatotoxicity (moderate): 2
[14]
  Hepatotoxicity (malignant tumour): 0

## CN1CCN(CC(=O)N2c3ccccc3C(=O)Nc3cccnc32)CC1 [PIRENZEPINE]
[1]
  Hepatotoxicity (acute): 0%
[2]
  Hepatotoxicity (benign tumour): 0
[3]
  Hepatotoxicity (association with vascular disease): 0
[4]
  Hepatotoxicity (granulomatous hepatitis): 0
[5]
  Hepatotoxicity (choleostasis): 0
[6]
  Hepatotoxicity (severe hepatitis): 0
[7]
  Hepatotoxicity (acute): 0
[8]
  Hepatotoxicity (cytolytic): 0
[9]
  Hepatotoxicity (cirrhosis): 0
[10]
  Hepatotoxicity (chronic liver disease): 0
[11]
  Hepatotoxicity (steatosis): 0
[12]
  Hepatotoxicity (moderate): 0.7%
[13]
  Hepatotoxicity (moderate): 2
[14]
  Hepatotoxicity (malignant tumour): 0

## Nc1nc(N)nc(Nc2ccc([As]3SCC(CO)S3)cc2)n1 (stereo not given) [MELARSOPROL]
[1]
  Hepatotoxicity (acute): 0%
[2]
  Hepatotoxicity (benign tumour): 0
[3]
  Hepatotoxicity (association with vascular disease): 0
[4]
  Hepatotoxicity (granulomatous hepatitis): 0
[5]
  Hepatotoxicity (choleostasis): 0
[6]
  Hepatotoxicity (severe hepatitis): 0
[7]
  Hepatotoxicity (acute): 0
[8]
  Hepatotoxicity (cytolytic): 0
[9]
  Hepatotoxicity (cirrhosis): 0
[10]
  Hepatotoxicity (chronic liver disease): 0
[11]
  Hepatotoxicity (steatosis): 0
[12]
  Hepatotoxicity (moderate): 1%
[13]
  Hepatotoxicity (moderate): 3
[14]
  Hepatotoxicity (malignant tumour): 0

## C[C@@H]1NC(=O)[C@@H](N)CNC(=O)[C@H](C2CCNC(=N)N2)NC(=O)/C(=C/NC(N)=O)NC(=O)[C@H](CNC(=O)CC(N)CCCN)NC1=O.N=C1NCCC([C@@H]2NC(=O)/C(=C/NC(N)=O)NC(=O)[C@H](CNC(=O)CC(N)CCCN)NC(=O)[C@H](CO)NC(=O)[C@@H](N)CNC2=O)N1 (stereo partly drawn) [CAPREOMYCIN] (H-[Dap]S[Dap](ξβ3hOrn)[ΔAla(Z-3-ureido)][X2]; lactam 1-C)
[1]
  Hepatotoxicity (acute): 0%
[2]
  Hepatotoxicity (benign tumour): 0
[3]
  Hepatotoxicity (association with vascular disease): 0
[4]
  Hepatotoxicity (granulomatous hepatitis): 0
[5]
  Hepatotoxicity (choleostasis): 0
[6]
  Hepatotoxicity (severe hepatitis): 0
[7]
  Hepatotoxicity (acute): 0
[8]
  Hepatotoxicity (cytolytic): 0
[9]
  Hepatotoxicity (cirrhosis): 0
[10]
  Hepatotoxicity (chronic liver disease): 0
[11]
  Hepatotoxicity (steatosis): 0
[12]
  Hepatotoxicity (moderate): 0%
[13]
  Hepatotoxicity (moderate): 3
[14]
  Hepatotoxicity (malignant tumour): 0

## Clc1cccc(Cl)c1N=C1NCCN1 [CLONIDINE]
[1]; Liver
  Hepatotoxicity (acute): 0%
[2]
  Hepatotoxicity (benign tumour): 0
[3]
  Hepatotoxicity (association with vascular disease): 0
[4]; Liver
  Hepatotoxicity (granulomatous hepatitis): 0
[5]; Liver
  Hepatotoxicity (choleostasis): 0
[6]; Liver
  Hepatotoxicity (severe hepatitis): 0
[7]
  Hepatotoxicity (acute): 0
[8]; Liver
  Hepatotoxicity (cytolytic): 0
[9]
  Hepatotoxicity (cirrhosis): 0
[10]
  Hepatotoxicity (chronic liver disease): 0
[11]
  Hepatotoxicity (steatosis): 0
[12]; Liver
  Hepatotoxicity (moderate): 12.5%
[13]
  Hepatotoxicity (moderate): 1
[14]
  Hepatotoxicity (malignant tumour): 0

## CC[N+](C)(C/C=C/C1=C(C(=O)[O-])N2C(=O)[C@@H](NC(=O)/C(=N\OCF)c3nsc(N)n3)[C@H]2SC1)CC(N)=O (stereo not given in full)
[1]
  Hepatotoxicity (acute): 0%
[2]
  Hepatotoxicity (benign tumour): 0
[3]
  Hepatotoxicity (association with vascular disease): 0
[4]
  Hepatotoxicity (granulomatous hepatitis): 0
[5]
  Hepatotoxicity (choleostasis): 0
[6]
  Hepatotoxicity (severe hepatitis): 0
[7]
  Hepatotoxicity (acute): 0
[8]
  Hepatotoxicity (cytolytic): 0
[9]
  Hepatotoxicity (cirrhosis): 0
[10]
  Hepatotoxicity (chronic liver disease): 0
[11]
  Hepatotoxicity (steatosis): 0
[12]
  Hepatotoxicity (moderate): 37.5%
[13]
  Hepatotoxicity (moderate): 51
[14]
  Hepatotoxicity (malignant tumour): 0

## CC(C)(C)c1ccc(CCC(O)COc2ccc(C(=O)O)cc2)cc1 (stereo not given) [LIFIBROL]
[1]
  Hepatotoxicity (acute): 0%
[2]
  Hepatotoxicity (benign tumour): 0
[3]
  Hepatotoxicity (association with vascular disease): 0
[4]
  Hepatotoxicity (granulomatous hepatitis): 0
[5]
  Hepatotoxicity (choleostasis): 0
[6]
  Hepatotoxicity (severe hepatitis): 0
[7]
  Hepatotoxicity (acute): 0
[8]
  Hepatotoxicity (cytolytic): 0
[9]
  Hepatotoxicity (cirrhosis): 0
[10]
  Hepatotoxicity (chronic liver disease): 0
[11]
  Hepatotoxicity (steatosis): 0
[12]
  Hepatotoxicity (moderate): 3.9%
[13]
  Hepatotoxicity (moderate): 1
[14]
  Hepatotoxicity (malignant tumour): 0

## CC(/C=N/NC(=N)N)=N\NC(=N)N [MITOGUAZONE]
[1]
  Hepatotoxicity (acute): 0%
[2]
  Hepatotoxicity (benign tumour): 0
[3]
  Hepatotoxicity (association with vascular disease): 0
[4]
  Hepatotoxicity (granulomatous hepatitis): 0
[5]
  Hepatotoxicity (choleostasis): 0
[6]
  Hepatotoxicity (severe hepatitis): 0
[7]
  Hepatotoxicity (acute): 0
[8]
  Hepatotoxicity (cytolytic): 0
[9]
  Hepatotoxicity (cirrhosis): 0
[10]
  Hepatotoxicity (chronic liver disease): 0
[11]
  Hepatotoxicity (steatosis): 0
[12]
  Hepatotoxicity (moderate): 18.2%
[13]
  Hepatotoxicity (moderate): 1
[14]
  Hepatotoxicity (malignant tumour): 0

## CN1C(CSCC(F)(F)F)Nc2cc(Cl)c(S(N)(=O)=O)cc2S1(=O)=O (stereo not given) [POLYTHIAZIDE]
[1]
  Hepatotoxicity (acute): 0%
[2]
  Hepatotoxicity (benign tumour): 0
[3]
  Hepatotoxicity (association with vascular disease): 0
[4]
  Hepatotoxicity (granulomatous hepatitis): 0
[5]
  Hepatotoxicity (choleostasis): 1
[6]
  Hepatotoxicity (severe hepatitis): 0
[7]
  Hepatotoxicity (acute): 1
[8]
  Hepatotoxicity (cytolytic): 1
[9]
  Hepatotoxicity (cirrhosis): 0
[10]
  Hepatotoxicity (chronic liver disease): 0
[11]
  Hepatotoxicity (steatosis): 0
[12]
  Hepatotoxicity (moderate): 0%
[13]
  Hepatotoxicity (moderate): 0
[14]
  Hepatotoxicity (malignant tumour): 0

## CN1C[C@H](C(=O)N[C@]2(C)O[C@@]3(O)[C@@H]4CCCN4C(=O)[C@H](Cc4ccccc4)N3C2=O)C=C2c3cccc4[nH]cc(c34)C[C@H]21 [ERGOTAMINE]
[1]
  Hepatotoxicity (acute): 0%
[2]
  Hepatotoxicity (benign tumour): 0
[3]
  Hepatotoxicity (association with vascular disease): 0
[4]
  Hepatotoxicity (granulomatous hepatitis): 0
[5]
  Hepatotoxicity (choleostasis): 0
[6]
  Hepatotoxicity (severe hepatitis): 0
[7]
  Hepatotoxicity (acute): 0
[8]
  Hepatotoxicity (cytolytic): 0
[9]
  Hepatotoxicity (cirrhosis): 0
[10]
  Hepatotoxicity (chronic liver disease): 0
[11]
  Hepatotoxicity (steatosis): 0
[12]
  Hepatotoxicity (moderate): 35.7%
[13]
  Hepatotoxicity (moderate): 1
[14]
  Hepatotoxicity (malignant tumour): 0

## CN1CCCN(C(c2ccccc2)c2ccc(Cl)cc2)CC1 (stereo not given) [HOMOCHLORCYCLIZINE]
[1]
  Hepatotoxicity (acute): 0%
[2]
  Hepatotoxicity (benign tumour): 0
[3]
  Hepatotoxicity (association with vascular disease): 0
[4]
  Hepatotoxicity (granulomatous hepatitis): 0
[5]
  Hepatotoxicity (choleostasis): 1
[6]
  Hepatotoxicity (severe hepatitis): 0
[7]
  Hepatotoxicity (acute): 1
[8]
  Hepatotoxicity (cytolytic): 1
[9]
  Hepatotoxicity (cirrhosis): 0
[10]
  Hepatotoxicity (chronic liver disease): 0
[11]
  Hepatotoxicity (steatosis): 0
[12]
  Hepatotoxicity (moderate): 0%
[13]
  Hepatotoxicity (moderate): 0
[14]
  Hepatotoxicity (malignant tumour): 0

## CSCC[C@H](N)C(=O)O [METHIONINE]
[1]; Liver
  Hepatotoxicity (acute): 0%
[2]
  Hepatotoxicity (benign tumour): 0
[3]
  Hepatotoxicity (association with vascular disease): 0
[4]; Liver
  Hepatotoxicity (granulomatous hepatitis): 0
[5]; Liver
  Hepatotoxicity (choleostasis): 0
[6]; Liver
  Hepatotoxicity (severe hepatitis): 0
[7]
  Hepatotoxicity (acute): 2
[8]; Liver
  Hepatotoxicity (cytolytic): 1
[9]
  Hepatotoxicity (cirrhosis): 0
[10]
  Hepatotoxicity (chronic liver disease): 0
[11]
  Hepatotoxicity (steatosis): 0
[12]; Liver
  Hepatotoxicity (moderate): 0%
[13]
  Hepatotoxicity (moderate): 1
[14]
  Hepatotoxicity (malignant tumour): 0

## CO[C@@]1(NC(=O)C2SC(=C(C(N)=O)C(=O)O)S2)C(=O)N2C(C(=O)O)=C(CSc3nnnn3C)CS[C@@H]21 (stereo not given in full) [CEFOTETAN]
[1]
  Hepatotoxicity (acute): 0%
[2]
  Hepatotoxicity (benign tumour): 0
[3]
  Hepatotoxicity (association with vascular disease): 0
[4]
  Hepatotoxicity (granulomatous hepatitis): 0
[5]
  Hepatotoxicity (choleostasis): 0
[6]
  Hepatotoxicity (severe hepatitis): 0
[7]
  Hepatotoxicity (acute): 0
[8]
  Hepatotoxicity (cytolytic): 0
[9]
  Hepatotoxicity (cirrhosis): 0
[10]
  Hepatotoxicity (chronic liver disease): 0
[11]
  Hepatotoxicity (steatosis): 0
[12]
  Hepatotoxicity (moderate): 37.5%
[13]
  Hepatotoxicity (moderate): 10
[14]
  Hepatotoxicity (malignant tumour): 0

## CC(=O)OCC1=C(C(=O)O)N2C(=O)[C@@H](NC(=O)CC#N)[C@H]2SC1
[1]
  Hepatotoxicity (acute): 0%
[2]
  Hepatotoxicity (benign tumour): 0
[3]
  Hepatotoxicity (association with vascular disease): 0
[4]
  Hepatotoxicity (granulomatous hepatitis): 0
[5]
  Hepatotoxicity (choleostasis): 0
[6]
  Hepatotoxicity (severe hepatitis): 0
[7]
  Hepatotoxicity (acute): 0
[8]
  Hepatotoxicity (cytolytic): 0
[9]
  Hepatotoxicity (cirrhosis): 0
[10]
  Hepatotoxicity (chronic liver disease): 0
[11]
  Hepatotoxicity (steatosis): 0
[12]
  Hepatotoxicity (moderate): 29.6%
[13]
  Hepatotoxicity (moderate): 1
[14]
  Hepatotoxicity (malignant tumour): 0

## CCCN[C@H]1CCc2nc(N)sc2C1 [PRAMIPEXOLE]
[1]; Liver
  Hepatotoxicity (acute): 0%
[2]
  Hepatotoxicity (benign tumour): 0
[3]
  Hepatotoxicity (association with vascular disease): 0
[4]; Liver
  Hepatotoxicity (granulomatous hepatitis): 0
[5]; Liver
  Hepatotoxicity (choleostasis): 0
[6]; Liver
  Hepatotoxicity (severe hepatitis): 0
[7]
  Hepatotoxicity (acute): 0
[8]; Liver
  Hepatotoxicity (cytolytic): 0
[9]
  Hepatotoxicity (cirrhosis): 0
[10]
  Hepatotoxicity (chronic liver disease): 0
[11]
  Hepatotoxicity (steatosis): 0
[12]; Liver
  Hepatotoxicity (moderate): 7.1%
[13]
  Hepatotoxicity (moderate): 1
[14]
  Hepatotoxicity (malignant tumour): 0
